According to ChEMBL document CHEMBL1124314, “Development of phosphonate derivatives of gadolinium chelates for NMR imaging of calcified soft tissues” (J Med Chem, 1989):

What was measured:
[1] = species: Rattus norvegicus; test: Biodistribution in rat heart in the presence of 0.10 M/0.11 M GdDTPA-HPDP; conditions: in vivo
[2] = species: Rattus norvegicus; test: Biodistribution in rat bone in the presence of GdDTPA-BDP at 4 hr; format: ADME, organism-based, Bone element; conditions: in vivo
[3] = species: Rattus norvegicus; test: Biodistribution in rat kidney in the presence of 0.001 M/0.008 M GdDTPA-AEP; conditions: in vivo
[4] = species: Rattus norvegicus; test: Biodistribution in rat bone in the presence of 0.10 M/0.11 M GdDTPA-AEP; format: ADME, organism-based, Bone element; conditions: in vivo
[5] = species: Rattus norvegicus; test: Biodistribution in rat bone in the presence of GdDTPA at 20 min; conditions: in vivo, 0.33 h
[6] = species: Rattus norvegicus; test: Biodistribution in rat blood in the presence of GdDTPA at 4 hr; format: ADME, organism-based; conditions: in vivo
[7] = species: Rattus norvegicus; test: Biodistribution in rat bone in the presence of 0.01 M GdDTPA-BDP; format: ADME, organism-based, Bone element; conditions: in vivo
[8] = species: Rattus norvegicus; test: Biodistribution in rat bone in the presence of GdDTPA-HPDP at 15 min; format: ADME, organism-based, Bone element; conditions: in vivo, 0.25 h
[9] = species: Rattus norvegicus; test: Biodistribution in rat muscle in the presence of GdDTPA-BDPat 30 min; format: ADME, organism-based, Muscle tissue; conditions: in vivo, 0.5 h
[10] = species: Rattus norvegicus; test: Biodistribution in rat heart in the presence of GdDTPA-HPDP at 30 min; format: ADME, organism-based; conditions: in vivo, 0.5 h
[11] = species: Rattus norvegicus; test: Biodistribution in rat bone in the presence of GdDTPA-BDP at 4 hr; conditions: in vivo
[12] = species: Rattus norvegicus; test: Biodistribution in rat muscle in the presence of 0.01 M GdDTPA-BDP; format: ADME, organism-based, Muscle tissue; conditions: in vivo
[13] = species: Rattus norvegicus; test: Biodistribution in rat blood in the presence of GdDTPA-HPDPat 1 hr; format: ADME, organism-based; conditions: in vivo
[14] = species: Rattus norvegicus; test: Biodistribution in rat kidney in the presence of 0.05 M/0.05 M GdDTPA-AEP; format: ADME, organism-based; conditions: in vivo
[15] = species: Rattus norvegicus; test: Biodistribution in rat blood in the presence of GdDTPA-HPDP at 30 min; format: ADME, organism-based; conditions: in vivo, 0.5 h
[16] = species: Rattus norvegicus; test: Biodistribution in rat muscle in the presence of 0.10 M GdDTPA-BDP; format: ADME, organism-based, Muscle tissue; conditions: in vivo
[17] = species: Rattus norvegicus; test: Biodistribution in rat heart in the presence of GdDTPA-BDP at 4 hr; conditions: in vivo
[18] = species: Rattus norvegicus; test: Biodistribution in rat blood in the presence of GdDTPA-BDPat 1 hr; format: ADME, organism-based; conditions: in vivo
[19] = species: Rattus norvegicus; test: Biodistribution in rat kidney in the presence of 0.01 M GdDTPA-BDP; format: ADME, organism-based; conditions: in vivo
[20] = species: Rattus norvegicus; test: Biodistribution in rat liver in the presence of GdDTPA at 1 hr; format: ADME, organism-based; conditions: in vivo
[21] = species: Rattus norvegicus; test: Biodistribution in rat heart in the presence of 0.01 M GdDTPA-BDP; format: ADME, organism-based; conditions: in vivo
[22] = species: Rattus norvegicus; test: Biodistribution in rat bone in the presence of 0.001 M/0.008 M GdDTPA-AEP; conditions: in vivo
[23] = species: Rattus norvegicus; test: Biodistribution in rat heart in the presence of 0.05 M GdDTPA-BDP; format: ADME, organism-based; conditions: in vivo
[24] = species: Rattus norvegicus; test: Biodistribution in rat heart in the presence of GdDTPA-HPDP at 1 hr; format: ADME, organism-based; conditions: in vivo
[25] = species: Rattus norvegicus; test: Biodistribution in rat bone in the presence of GdDTPA-HPDP at 1 hr; format: ADME, organism-based, Bone element; conditions: in vivo
[26] = species: Rattus norvegicus; test: Biodistribution in rat liver in the presence of 0.05 M/0.08 M GdDTPA-HPDP; format: ADME, organism-based; conditions: in vivo
[27] = species: Rattus norvegicus; test: Biodistribution in rat blood in the presence of 0.05 M GdDTPA-BDP; format: ADME, organism-based; conditions: in vivo
[28] = species: Rattus norvegicus; test: Biodistribution in rat blood in the presence of GdDTPA at 20 min; conditions: in vivo, 0.33 h
[29] = species: Rattus norvegicus; test: Biodistribution in rat heart in the presence of NAC Gd/0.01 M GdDTPA-HPDP; format: ADME, organism-based; conditions: in vivo
[30] = species: Rattus norvegicus; test: Biodistribution in rat liver in the presence of NAC Gd/0.01 M GdDTPA-HPDP; format: ADME, organism-based; conditions: in vivo
[31] = species: Rattus norvegicus; test: Biodistribution in rat liver in the presence of GdDTPA at 4 hr; format: ADME, organism-based; conditions: in vivo
[32] = species: Rattus norvegicus; test: Biodistribution in rat kidney in the presence of 0.10 M GdDTPA-BDP; format: ADME, organism-based; conditions: in vivo
[33] = species: Rattus norvegicus; test: Biodistribution in rat bone in the presence of GdDTPA-HPDP at 4 hr; format: ADME, organism-based, Bone element; conditions: in vivo
[34] = species: Rattus norvegicus; test: Biodistribution in rat heart in the presence of GdDTPA-HPDP at 4 hr; format: ADME, organism-based; conditions: in vivo
[35] = species: Rattus norvegicus; test: Biodistribution in rat heart in the presence of GdDTPA at 4 hr; format: ADME, organism-based; conditions: in vivo
[36] = species: Rattus norvegicus; test: Biodistribution in rat blood in the presence of NAC Gd/0.01 M GdDTPA-HPDP; format: ADME, organism-based; conditions: in vivo
[37] = species: Rattus norvegicus; test: Biodistribution in rat heart in the presence of 0.05 M/0.08 M GdDTPA-HPDP; format: ADME, organism-based; conditions: in vivo
[38] = species: Rattus norvegicus; test: Biodistribution in rat muscle in the presence of 0.05 M GdDTPA-BDP; format: ADME, organism-based, Muscle tissue; conditions: in vivo
[39] = species: Rattus norvegicus; test: Biodistribution in rat heart in the presence of 0.001 M/0.008 M GdDTPA-AEP; conditions: in vivo
[40] = species: Rattus norvegicus; test: Biodistribution in rat blood in the presence of 0.10 M/0.11 M GdDTPA-HPDP; conditions: in vivo
[41] = species: Rattus norvegicus; test: Biodistribution in rat blood in the presence of GdDTPA-HPDP at 4 hr; format: ADME, organism-based; conditions: in vivo
[42] = species: Rattus norvegicus; test: Biodistribution in rat bone in the presence of NAC Gd/0.01 M GdDTPA-HPDP; format: ADME, organism-based, Bone element; conditions: in vivo
[43] = species: Rattus norvegicus; test: Biodistribution in rat liver in the presence of 0.001 M/0.008 M GdDTPA-AEP; format: ADME, organism-based; conditions: in vivo
[44] = species: Rattus norvegicus; test: Biodistribution in rat bone in the presence of 0.01 M/0.01 M GdDTPA-AEP; format: ADME, organism-based, Bone element; conditions: in vivo

ID/organ [1]: 0.006% | ID/organ [2]: 18.5% | ID/organ [3]: 0.268% | ID/organ [4]: 16.4% | ID/organ [5]: 3.5% | ID/organ [6]: 0.005% | ID/organ [7]: 20.5% | ID/organ [8]: 15.5% | ID/organ [9]: 5.17% | ID/organ [10]: 0.04% | ID/organ [11]: 18.5% | ID/organ [12]: 4.38% | ID/organ [13]: 0.543% | ID/organ [14]: 0.264% | ID/organ [15]: 2.46% | ID/organ [16]: 3.59% | ID/organ [17]: 0.037% | ID/organ [18]: 2.53% | ID/organ [19]: 0.476% | ID/organ [20]: 0.267% | ID/organ [21]: 0.129% | ID/organ [22]: 0.264% | ID/organ [23]: 0.048% | ID/organ [24]: 0.011% | ID/organ [25]: 20% | ID/organ [26]: 0.109% | ID/organ [27]: 2.53% | ID/organ [28]: 6.03% | ID/organ [29]: 0.032% | ID/organ [30]: 0.082% | ID/organ [31]: 0.163% | ID/organ [32]: 0.29% | ID/organ [33]: 18.1% | ID/organ [34]: 0.003% | ID/organ [35]: 0.002% | ID/organ [36]: 0.26% | ID/organ [37]: 0.007% | ID/organ [38]: 4.47% | ID/organ [39]: 0.004% | ID/organ [40]: 0.19% | ID/organ [41]: 0.068% | ID/organ [42]: 65.7% | ID/organ [43]: 0.239% | ID/organ [44]: 0.641%
Structure (SMILES): O=C(O)CN(CCN(CC(=O)O)CC(=O)O)CCN(CC(=O)O)CC(=O)O [PENTETIC ACID]
